This note sets out measurements from ChEMBL document CHEMBL4184305, “Inhibition of histone lysine methyltransferases G9a and GLP by ejection of structural Zn(II)” (Bioorg Med Chem Lett, 2018).

SMILES strings stand for the structures. Activity calls are given as the source filed them. The calls are words filed in the database; no cut-off is given here.

In experiment [1] the target is T1, Histone-lysine N-methyltransferase EHMT2 (Homo sapiens) (UniProt Q96KQ7).
T1 sequence (whole entry): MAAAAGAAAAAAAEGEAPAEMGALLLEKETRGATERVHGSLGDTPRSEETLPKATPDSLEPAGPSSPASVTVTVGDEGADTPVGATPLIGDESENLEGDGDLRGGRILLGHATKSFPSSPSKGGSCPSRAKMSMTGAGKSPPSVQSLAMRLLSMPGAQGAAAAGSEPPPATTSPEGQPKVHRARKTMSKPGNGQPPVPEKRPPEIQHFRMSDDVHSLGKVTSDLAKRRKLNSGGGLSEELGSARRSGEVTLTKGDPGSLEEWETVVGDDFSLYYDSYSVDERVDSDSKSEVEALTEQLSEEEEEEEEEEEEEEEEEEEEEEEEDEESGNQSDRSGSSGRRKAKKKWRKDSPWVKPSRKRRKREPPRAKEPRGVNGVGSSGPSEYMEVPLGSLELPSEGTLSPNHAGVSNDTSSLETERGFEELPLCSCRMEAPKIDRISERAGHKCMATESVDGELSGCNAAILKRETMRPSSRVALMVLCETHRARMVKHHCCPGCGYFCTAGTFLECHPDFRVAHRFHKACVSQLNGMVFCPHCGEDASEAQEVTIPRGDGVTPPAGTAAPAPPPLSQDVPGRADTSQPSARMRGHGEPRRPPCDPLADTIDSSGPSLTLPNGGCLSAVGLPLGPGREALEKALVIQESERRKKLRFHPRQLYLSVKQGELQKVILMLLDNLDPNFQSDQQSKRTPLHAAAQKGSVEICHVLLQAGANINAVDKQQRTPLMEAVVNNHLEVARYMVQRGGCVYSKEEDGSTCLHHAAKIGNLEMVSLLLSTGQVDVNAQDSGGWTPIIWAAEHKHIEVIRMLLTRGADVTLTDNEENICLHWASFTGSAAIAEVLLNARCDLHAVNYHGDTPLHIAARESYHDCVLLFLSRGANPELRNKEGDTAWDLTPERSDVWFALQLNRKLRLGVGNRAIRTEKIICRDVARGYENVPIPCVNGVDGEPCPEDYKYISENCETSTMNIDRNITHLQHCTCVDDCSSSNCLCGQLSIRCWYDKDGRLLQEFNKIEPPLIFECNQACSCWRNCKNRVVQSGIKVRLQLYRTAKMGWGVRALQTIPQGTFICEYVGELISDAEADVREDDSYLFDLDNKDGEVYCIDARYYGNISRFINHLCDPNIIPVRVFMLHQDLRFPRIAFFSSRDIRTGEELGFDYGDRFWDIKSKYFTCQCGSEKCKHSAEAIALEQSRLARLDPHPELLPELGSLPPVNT
The experiment can be described thus: Inhibition of wild type recombinant human histone lysine methyltransferase G9a (913 to 1193 residues) expressed in Escherichia coli Rosetta BL21 DE3 PlysS assessed as zinc ions ejection from 3 types of Cys9-type Zn fingers at >50 uM after 1 hr by circular dichroism analysis. Background: Circular dichroism is widely used to follow secondary structure.

Experiment [2] concerns the target T2, Histone-lysine N-methyltransferase EHMT1 (Homo sapiens) (UniProt Q9H9B1).
T2 sequence (whole entry): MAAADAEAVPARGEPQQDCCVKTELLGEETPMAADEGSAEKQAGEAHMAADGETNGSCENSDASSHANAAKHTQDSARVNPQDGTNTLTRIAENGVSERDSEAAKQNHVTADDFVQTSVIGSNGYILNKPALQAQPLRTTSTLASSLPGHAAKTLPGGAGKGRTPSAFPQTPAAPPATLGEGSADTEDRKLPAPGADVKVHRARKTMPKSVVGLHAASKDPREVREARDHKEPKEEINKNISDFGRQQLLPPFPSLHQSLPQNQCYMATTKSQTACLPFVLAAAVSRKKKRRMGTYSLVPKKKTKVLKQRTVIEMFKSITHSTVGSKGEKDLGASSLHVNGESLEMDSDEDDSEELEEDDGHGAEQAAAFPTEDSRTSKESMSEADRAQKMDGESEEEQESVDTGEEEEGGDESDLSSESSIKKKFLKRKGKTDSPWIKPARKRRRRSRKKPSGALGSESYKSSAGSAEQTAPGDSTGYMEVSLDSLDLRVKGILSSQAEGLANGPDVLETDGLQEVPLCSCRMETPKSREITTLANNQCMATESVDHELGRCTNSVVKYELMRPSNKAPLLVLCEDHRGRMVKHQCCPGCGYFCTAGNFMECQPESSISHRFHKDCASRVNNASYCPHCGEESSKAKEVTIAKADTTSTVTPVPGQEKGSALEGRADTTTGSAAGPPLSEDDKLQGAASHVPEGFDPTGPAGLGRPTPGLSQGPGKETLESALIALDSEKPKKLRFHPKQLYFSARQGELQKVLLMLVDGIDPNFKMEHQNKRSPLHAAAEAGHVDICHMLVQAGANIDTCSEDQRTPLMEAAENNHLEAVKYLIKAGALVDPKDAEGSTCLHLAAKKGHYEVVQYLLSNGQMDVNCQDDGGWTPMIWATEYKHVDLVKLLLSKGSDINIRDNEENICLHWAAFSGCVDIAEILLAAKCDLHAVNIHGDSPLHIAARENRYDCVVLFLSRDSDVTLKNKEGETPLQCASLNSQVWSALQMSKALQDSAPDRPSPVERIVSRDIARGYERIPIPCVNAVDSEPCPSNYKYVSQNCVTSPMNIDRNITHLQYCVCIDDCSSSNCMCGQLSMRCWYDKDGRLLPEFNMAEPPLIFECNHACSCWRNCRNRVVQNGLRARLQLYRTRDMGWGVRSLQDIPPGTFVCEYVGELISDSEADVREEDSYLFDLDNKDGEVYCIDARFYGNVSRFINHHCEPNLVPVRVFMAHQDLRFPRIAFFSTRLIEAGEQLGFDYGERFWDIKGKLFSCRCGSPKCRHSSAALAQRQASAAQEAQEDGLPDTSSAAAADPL
Put plainly: Inhibition of wild type recombinant human histone lysine methyltransferase GLP (951 to 1235 residues) expressed in Escherichia coli Rosetta BL21 DE3 PlysS assessed as zinc ions ejection from Cys4-Zn finger at >50 uM after 1 hr by circular dichroism analysis.

The target of experiment [3] is T2, Histone-lysine N-methyltransferase EHMT1 (Homo sapiens). The experiment can be described thus: Inhibition of wild type recombinant human histone lysine methyltransferase GLP (951 to 1235 residues) expressed in Escherichia coli Rosetta BL21 DE3 PlysS assessed as zinc ions ejection from 3 types of Cys9-type Zn fingers at >50 uM after 1 hr by circular dichroism analysis.

Experiment [4] has as its target T1, Histone-lysine N-methyltransferase EHMT2 (Homo sapiens). Put plainly: Inhibition of wild type recombinant human histone lysine methyltransferase G9a (913 to 1193 residues) expressed in Escherichia coli Rosetta BL21 DE3 PlysS assessed as zinc ions ejection from Cys4-Zn finger at >25 uM after 1 hr by circular dichroism analysis.
The target is the same in experiment [5]. Put plainly: Inhibition of wild type recombinant human histone lysine methyltransferase G9a (913 to 1193 residues) expressed in Escherichia coli Rosetta BL21 DE3 PlysS assessed as zinc ions ejection from Cys4-Zn finger at 2.5 to 100 uM measured up to 1 min by FluoZin-3 based fluorescence assay.

For the compound `CCN(CC)C(=S)SSC(=S)N(CC)CC`, the inhibition result in experiment [1], in experiment [2] and in experiment [3] was “Active” in each case.
Regarding `O=c1c2ccccc2[se]n1-c1ccccc1` [EBSELEN], the inhibition entry in experiment [4] and in experiment [5] was “Active” each time.
